The target in this assay is T1, hTAS1R1 S306A/rTAS1R3 (Homo sapiens, UniProt Q7RTX1, S306A).
T1 construct: expressed in transfected cells; host or cells: HEK293T/17 (ATCC CRL-11268)
T1 sequence (Q7RTX1 21-841 S306A): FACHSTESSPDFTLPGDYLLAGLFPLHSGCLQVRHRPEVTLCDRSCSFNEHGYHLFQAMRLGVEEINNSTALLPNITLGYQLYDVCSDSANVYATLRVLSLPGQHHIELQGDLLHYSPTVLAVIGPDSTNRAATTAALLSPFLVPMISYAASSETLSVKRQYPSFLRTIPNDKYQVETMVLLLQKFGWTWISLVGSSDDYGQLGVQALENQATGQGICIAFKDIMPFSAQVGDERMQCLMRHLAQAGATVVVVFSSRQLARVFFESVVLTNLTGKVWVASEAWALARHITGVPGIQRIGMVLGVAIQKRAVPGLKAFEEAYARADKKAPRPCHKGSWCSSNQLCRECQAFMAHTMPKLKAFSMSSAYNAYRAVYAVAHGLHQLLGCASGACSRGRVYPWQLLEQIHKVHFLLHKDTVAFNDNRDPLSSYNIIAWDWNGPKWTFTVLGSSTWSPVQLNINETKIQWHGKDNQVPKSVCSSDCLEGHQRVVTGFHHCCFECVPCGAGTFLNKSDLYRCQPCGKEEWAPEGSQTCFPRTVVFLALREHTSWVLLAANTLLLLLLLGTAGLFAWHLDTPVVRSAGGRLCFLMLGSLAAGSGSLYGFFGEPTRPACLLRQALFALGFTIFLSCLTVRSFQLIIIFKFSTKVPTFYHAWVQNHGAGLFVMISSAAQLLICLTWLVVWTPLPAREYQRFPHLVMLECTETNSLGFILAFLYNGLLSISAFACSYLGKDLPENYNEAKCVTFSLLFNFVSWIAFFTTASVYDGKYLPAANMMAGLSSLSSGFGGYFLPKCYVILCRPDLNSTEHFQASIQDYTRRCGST
T1 sequence (Q923K1 21-858 partner): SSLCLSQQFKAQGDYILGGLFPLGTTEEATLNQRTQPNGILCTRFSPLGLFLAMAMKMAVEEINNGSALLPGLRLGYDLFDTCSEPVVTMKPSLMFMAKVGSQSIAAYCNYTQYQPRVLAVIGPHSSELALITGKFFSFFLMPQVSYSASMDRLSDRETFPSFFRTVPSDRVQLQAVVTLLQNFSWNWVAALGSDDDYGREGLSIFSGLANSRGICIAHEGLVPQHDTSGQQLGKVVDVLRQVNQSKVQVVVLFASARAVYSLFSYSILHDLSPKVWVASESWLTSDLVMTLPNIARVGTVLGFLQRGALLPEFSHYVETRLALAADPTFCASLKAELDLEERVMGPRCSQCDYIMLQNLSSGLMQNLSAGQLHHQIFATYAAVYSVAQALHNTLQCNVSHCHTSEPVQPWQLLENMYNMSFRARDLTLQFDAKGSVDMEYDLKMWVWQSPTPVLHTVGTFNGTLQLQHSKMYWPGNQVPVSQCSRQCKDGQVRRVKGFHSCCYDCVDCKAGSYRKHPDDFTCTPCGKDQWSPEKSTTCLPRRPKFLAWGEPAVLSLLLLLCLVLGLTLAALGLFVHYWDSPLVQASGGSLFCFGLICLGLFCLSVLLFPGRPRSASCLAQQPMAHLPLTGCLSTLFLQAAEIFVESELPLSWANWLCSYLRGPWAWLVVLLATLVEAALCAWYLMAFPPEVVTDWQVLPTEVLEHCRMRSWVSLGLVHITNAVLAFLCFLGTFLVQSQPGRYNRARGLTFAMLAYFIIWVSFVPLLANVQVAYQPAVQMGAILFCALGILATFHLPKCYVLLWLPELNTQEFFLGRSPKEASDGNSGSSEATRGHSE
Kind of assay: Calcium assay, hTAS1R1 mutant co-expressed with rTAS1R3. It counts as cell-based, rat.

SMILES strings stand for the structures.

In the case of `N[C@@H](CCC(=O)N[C@@H](CS)C(=O)NCC(=O)O)C(=O)O` [GSH, γ-L-glutamyl-L-cysteinyl-glycine], the concentration giving a half-maximal response (EC50) is above 30 mM. For the same molecule, under “S306A”, the “effect of the added compound (1 mM) on the response to L-Glu” value was “did not affect” and the “response to the agonist alone, vs WT” value is listed as “fully abolished”.
For `CCCC(CCC)NC(=O)c1ccc2c(c1)OCO2` [S807, N-(heptan-4-yl)benzo[d][1,3]dioxole-5-carboxamide, reference compound], the “response to the agonist alone, vs WT” value (S306A) is “strongly affected”.

In general, EC50 refers to the concentration giving half of the maximal effect.

Source of the values: PMC12615753, “Glutathione as a taste modulator: molecular mechanisms of interaction with umami and sweet taste receptors” (Food Chemistry: Molecular Sciences, 2025).
